Structures can show the parent of a compound that is named as a salt.
How the values were obtained:
[1] = test system: right atrium sample, spontaneous cardiac rate; experiment: Test on cardiac rate lowering effect (spontaneously beating isolated right atrium in Magnus tube); conditions: Cavia porcellus, 0.5 h; concentration lowering the spontaneous cardiac rate by 30%; guinea pig right atrium; data 30 minutes after addition
Experimental: 2. Test on Cardiac Rate Lowering Effect
The test on cardiac rate lowering effect was carried out by a method according to Walter, K., et al. Eur. J. Pharmacol., 104(1-2):9-18, 1984.
Male guinea pigs of a Hartley strain having a body weight of about 250 to 400 g were fainted away by knocking the head and killed by draining out the blood, and the heart was excised. A right atrium sample was prepared in a Tyrode's solution which was fully aerated with 95% oxygen and 5% carbon dioxide gas. The sample was applied to a hook made of stainless steel and suspended at a load tension of 1.0 g in a Magnus tube filled with a Tyrode's solution which was well aerated with 95% oxygen and 5% carbon dioxide gas, whereby the spontaneously pulsing cardiac rate was recorded. After suspending, the sample was allowed to stand for a stabilization period of 1 hour or more, the test compound was cumulatively added into a Magnus tube every 30 to 45 minutes and a concentration vs. effect curve was determined from the data after 30 minutes from the administration of the substance, whereby the effect was judged. The cardiac rate lowering effect was compared in terms of the concentration (EC30) of the substance which lowered the spontaneous cardiac rate to an extent of 30% from the data before the administration.

[2] = Test on convulsion expression; format: in vivo, rat; conditions: 40 mg/kg i.v. (tail vein), once; male Wister rats; observed about 1 hour
Experimental: 3. Test on Convulsion Expression
Male rats of a Wister strain having a body weight of 250 to 350 g under awaking were fixed in a cage, and the test compound was administered from a tail vein. The test compound was administered at a dose of either 20 mg/kg (i.v.) or 40 mg/kg (i.v.) once for each rat. […] The influence of the test compound on the spontaneous behavior of the rat was evaluated by the fact whether or not the convulsion was noted within the observed period.

melting point [°C] | Compound | EC30 [1] [µM] | General Findings (convulsion) [2]
182 to 185 | COc1cc2c(cc1OC)CN(C(=O)C1CCCN(CCNC(=O)c3ccc4c(c3)OCO4)C1)CC2 (racemic) (as salt: HCl) [Example 9, (±)-N-{2-[3-(6,7-dimethoxy-1,2,3,4-tetrahydrolsoquinoline-2-carbonyl)piperidino]ethyl}-3,4-methylenedioxybenzamide hydrochloride] | – | –
199 to 202 | COc1ccc(C(=O)NCCN2CCCC(C(=O)N3CCc4cc(OC)c(OC)cc4C3)C2)cc1OC (racemic) (as salt: HCl) [Example 11, (±)-N-{2-[3-(6,7-dimethoxy-1,2,3,4-tetrahydroisoquinoline-2-carbonyl)-piperidino]ethyl}-3,4-dimethoxybenzamide hydrochloride] | – | –
164 to 166 | COc1cc2c(cc1OC)CN(C(=O)[C@H]1CCCN(CCC(=O)Nc3ccc4c(c3)OCO4)C1)CC2 (racemic) (as salt: fumarate) (hydrate or solvate) [Example 53, (±)-3-[(S)-3-(6,7-dimethoxy-1,2,3,4-tetrahydroisoquinoline-2-carbonyl)piperidino]-N-(3,4-methylenedioxyphenyl)propanamide fumarate] | – | –
187 to 192 | COc1cc(NC(=O)CCN2CCCC(C(=O)N3CCc4cc(OC)c(OC)cc4C3)C2)cc(OC)c1 (racemic) (as salt: oxalate) [Example 3, (±)-3-[3-(6,7-dimethoxy-1,2,3,4-tetrahydroisoquinoline-2-carbonyl)piperidino]-N-(3,5-dimethoxyphenyl)propanamide 1/2 oxalate] | – | –
113 to 116 | COc1cc2c(cc1OC)CN(C(=O)C1CCCN(CCCC(=O)Nc3ccc4c(c3)OCO4)C1)CC2 (racemic) (as salt: oxalate) [Example 7, (±)-4-[3-(6,7-dimethoxy-1,2,3,4-tetrahydroisoquinoline-2-carbonoyl)piperidino]-N-(3,4-methylenedioxyphenyl)butanamide oxalate] | – | –
157 to 159 | COc1cc2c(cc1OC)CN(C(=O)C1CCCN(CC(=O)Nc3ccc4c(c3)OCO4)C1)CC2 (racemic) (as salt: oxalate) [Example 8, (±)-2-[3-(6,7-dimethoxy-1,2,3,4-tetrahydroisoquinoline-2-carbonyl)piperidino]-N-(3,4-methylenedioxyphenyl)ethanamide oxalate] | – | –
120 to 123 | COc1cccc(C(=O)NCCN2CCCC(C(=O)N3CCc4cc(OC)c(OC)cc4C3)C2)c1 (racemic) (as salt: oxalate) [Example 10, (±)-N-{2-[3-(6,7-dimethoxy-1,2,3,4-tetrahydroisoquinoline-2-carbonyl)-piperidino]ethyl}-3-methoxybenzamide oxalate] | – | –
– | COc1cc2c(cc1OC)CN(C(=O)C1CCCN(CCC(=O)Nc3ccc4c(c3)OCO4)C1)CC2 (racemic) [Example 2, (±)-3-[3-(6,7-dimethoxy-1,2,3,4-tetrahydroisoquinoline-2-carbonyl)piperidino]-N-(3,4-methylenedioxyphenyl)propanamide hydrochloride] | 0.3 | No abnormal finding
– | COc1ccc(NC(=O)CCN2CCCC(C(=O)N3CCc4cc(OC)c(OC)cc4C3)C2)cc1 (racemic) [Example 4, (±)-3-[3-(6,7-dimethoxy-1,2,3,4-tetrahydroisoquinoline-2-carbonyl)piperidino]-N-(4-methoxyphenyl)propanamide hydrochloride] | 0.57 | No abnormal finding
– | COc1cc2c(cc1OC)CN(C(=O)C1CCCN(CCNC(=O)c3ccc4c(c3)OCO4)C1)CC2 (racemic) [Example 9, (±)-N-{2-[3-(6,7-dimethoxy-1,2,3,4-tetrahydrolsoquinoline-2-carbonyl)piperidino]ethyl}-3,4-methylenedioxybenzamide hydrochloride] | 0.27 | No abnormal finding
– | COc1cccc(C(=O)NCCN2CCCC(C(=O)N3CCc4cc(OC)c(OC)cc4C3)C2)c1 (racemic) [Example 10, (±)-N-{2-[3-(6,7-dimethoxy-1,2,3,4-tetrahydroisoquinoline-2-carbonyl)-piperidino]ethyl}-3-methoxybenzamide oxalate] | 0.27 | No abnormal finding
– | COc1cc2c(cc1OC)CN(C(=O)[C@@H]1CCCN(CCC(=O)Nc3ccc4c(c3)OCO4)C1)CC2 [Example 5, (−)-3-[(R)-3-(6,7-dimethoxy-1,2,3,4-tetrahydroisoquinoline-2-carbonyl)piperidino]-N-(3,4-methylenedioxyphenyl)propanamide L-tartrate] | 0.38 | No abnormal finding
– | COc1cc2c(cc1OC)CN(C(=O)[C@H]1CCCN(CCC(=O)Nc3ccc4c(c3)OCO4)C1)CC2 [Example 6, (+)-3-[(S)-3-(6,7-dimethoxy-1,2,3,4-tetrahydroisoquinoline-2-carbonyl)piperidino]-N-(3,4-methylenedioxyphenyl)propanamide D-tartrate] | 0.32 | No abnormal finding
– | COc1cc2c(cc1OC)CN(C(=O)C1CCCN(CCC(=O)Nc3cccc(Cl)c3)C1)CC2 (stereo not drawn) [Example 12] | 0.27 | –
– | COc1cc2c(cc1OC)CN(C(=O)C1CCCN(CCC(=O)Nc3ccc4ncsc4c3)C1)CC2 (stereo not drawn) [Example 14] | 0.47 | No abnormal finding
159 to 160 | COc1cc2c(cc1OC)CN(C(=O)C1=CCCN(CCC(=O)Nc3ccc4c(c3)OCO4)C1)CC2 [Example 22] | – | –
155 to 164 | COc1ccc(NC(=O)CCN2CCC=C(C(=O)N3CCc4cc(OC)c(OC)cc4C3)C2)cc1 [Example 23] | – | –
– | COc1ccc(C(=O)NCCN2CCCC(C(=O)N3CCc4cc(OC)c(OC)cc4C3)C2)cc1C (stereo not drawn) [Example 26] | 0.24 | No abnormal finding
– | COc1ccc(C(=O)NCCN2CCCC(C(=O)N3CCc4cc(OC)c(OC)cc4C3)C2)cc1F (stereo not drawn) [Example 27] | 0.41 | No abnormal finding
– | COc1cc(C(=O)NCCN2CCCC(C(=O)N3CCc4cc(OC)c(OC)cc4C3)C2)ccc1C (stereo not drawn) [Example 28] | – | No abnormal finding
– | COc1cc2c(cc1OC)CN(C(=O)C1CCCN(CCNC(=O)c3ccc(F)c(F)c3)C1)CC2 (stereo not drawn) [Example 29] | 0.29 | No abnormal finding
– | COc1cc2c(cc1OC)CN(C(=O)C1CCCN(CCNC(=O)c3ccc4c(c3)OCCO4)C1)CC2 (stereo not drawn) [Example 30] | – | No abnormal finding
150 to 151 | COc1cc2c(cc1OC)CN(C(=O)[C@@H]1CCCN(CCNC(=O)c3ccc4c(c3)OCO4)C1)CC2 [Example 37] | 0.3 | No abnormal finding
154 to 155 | COc1cc2c(cc1OC)CN(C(=O)[C@H]1CCCN(CCNC(=O)c3ccc4c(c3)OCO4)C1)CC2 [Example 38] | 0.29 | No abnormal finding
– | COc1cc2c(cc1OC)CN(C(=O)C1CCCN(CCNC(=O)c3ccc(F)cc3)C1)CC2 (stereo not drawn) [Example 40] | 0.33 | No abnormal finding
162 to 164 | COc1cc2c(cc1OC)CN(C(=O)C1=CCCN(CCNC(=O)c3ccc4c(c3)OCO4)C1)CC2 [Example 46] | – | –
153 to 154 | COc1ccc(C(=O)NCCN2CCC=C(C(=O)N3CCc4cc(OC)c(OC)cc4C3)C2)cc1 [Example 47] | – | No abnormal finding
131 to 133 | COc1cc2c(cc1OC)CN(C(=O)C1CN(CCNC(=O)c3ccc4c(c3)OCO4)C1)CC2 [Example 48] | – | –
– | COc1cc2c(cc1OC)CN(C(=O)[C@@H]1CCCN(CCNC(=O)c3ccc(F)cc3)C1)CC2 [Example 49] | 0.29 | No abnormal finding
– | COc1cc2c(cc1OC)CN(C(=O)[C@H]1CCCN(CCNC(=O)c3ccc(F)cc3)C1)CC2 [Example 50] | 0.31 | No abnormal finding

Source: patent publication US6573279B1, “Isoquinoline derivatives or salts thereof” (priority 1999, dated 2003)
